For data set [1], the system named is CYP3A4. Further details: method as in PMID 19070657. The note with it: cited from earlier work.
The test system of data set [2] is HaCaT cells. Nature of the data set: Alamar Blue cell viability/cytotoxicity assay, HaCaT. Type of data set: cell-based. The note with it: Homo sapiens. The source says:
(§1) To assess the cytotoxic activity of GLY, IMD and IMZ, six cell lines, namely Caco-2 (human epithelial colorectal adenocarcinoma; Cell Lines Service (CLS), Eppelheim, Germany), HepG2 (human hepatocellular carcinoma; ATCC, Rockville, USA), A431 (human epidermoid carcinoma; CLS, Eppelheim, Germany), HaCaT (human keratinocytes, CLS, Eppelheim, Germany), SK-MEL-5 (human skin melanoma; CLS, Eppelheim, Germany), and RAW 264.7 (mouse macrophages, Abelson murine leukaemia virus-induced tumour; CLS, Eppelheim, Germany) cells, were used. All cell lines were cultured in complete culture media, composed of Dulbecco’s Modified Eagle Media (DMEM), supplemented with 1 mM L-glutamine, 10% (v/v) foetal bovine serum (FBS), and antibiotics (penicillin at 100 U/mL, and streptomycin at 100 μg/mL) and maintained in an incubator (5% CO2/95% air; 37 °C, controlled humidity). Cells were grown, in T25 culture flasks, to near confluence.
(§2) Near confluence, all cell lines, except RAW 264.7 cells, were subjected to enzymatic treatment (trypsin-EDTA) for detachment and subculture, as described by Andreani et al. and by Silva et al., which was stopped using complete culture medium (1:1, trypsin:culture media) as soon as cells were detached. RAW 264.7 cells were scratched off from the culture flasks using a cell scratcher (Orange Scientific; Braine-L’Alleud, Belgium), handling was performed, as described by Silva et al.. Once detached from the flasks, cells were gently separated and re-suspended using a Pasteur pipette, counted using an automated cell counter (TC10™, BIORAD, Lisbon, Portugal). Then, cells were re-suspended in fresh culture media (at 5 × 10^4 cells/mL) and seeded into 96-well microplates (100 µL/well) which were maintained in an incubator, for 48 h (to adhere and stabilize) before being used. For other details, see [24, 25].
(§3) Alamar Blue® (AB) assay was performed to assess the in vitro effect of the pesticides on cell viability. In summary, cells seeded into 96-well microplates were treated with various concentrations of the pesticides (GLY: 0–1 mM; IMD: 0–1 mM; IMZ: 0–0.3 mM). Test solutions were prepared in FBS-free culture media by diluting the appropriate volume of respective stock solution. A stock solution of GLY was prepared in water (at 40 mM), and stock solutions of IMD and IMZ were prepared in DMSO (at 20 mM). After 24 h or 48 h of exposure, the test solutions were removed and immediately replaced with Alamar Blue solution (100 µL/well; 10% (v/v) in FBS-free medium), followed by an additional 5 h incubation. Then, absorbance was read at 570 and 620 nm using a microplate reader (Multiskan EX; MTX Lab Systems, Inc., Bradenton, FL, USA), and the percentage of AB reduction was calculated according to manufacturers’ instructions, as described. Cell viability was calculated and expressed as percentage of control cells (non-exposed cells).

For data set [3] the following is noted: cited from earlier work.
Data set [4] deals with A431 cells. Briefly: Alamar Blue cell viability/cytotoxicity assay, A431. The note with it: Homo sapiens. Type of data set: cell-based.
Text: as §1, §2, §3

Data set [5] in a line: Alamar Blue cell viability/cytotoxicity assay, Caco-2. It is filed as cell-based, human. The note with it: human, 48 h. As for the experimental part: (§4) Cells were grown, in T25 culture flasks, to near confluence.
as §2, §3

In data set [6] the test system is Caco-2 cells. Described as above. It is filed as cell-based, human. To be noted: for cell viability reduction: Caco-2, 300 µM; for IC50: Homo sapiens. As to the method:
as §4, §2, §3

Data set [7] deals with Caco-2 cells. The note with it: cited from earlier work; for IC50: Caco-2, 24 h.
Data set [8] has as its system HepG2 cells. Briefly: Alamar Blue cell viability/cytotoxicity assay, HepG2. It is filed as cell-based, human. To be noted: for IC50: Homo sapiens.
Text: as §1, §2, §3

In data set [9] the test system is RAW 264.7 cells. Nature of the data set: Alamar Blue cell viability/cytotoxicity assay, RAW 264.7. To be noted: Mus musculus. It is filed as cell-based.
Text: as §1, §2, §3

For data set [10] the following is noted: n-octanol/water; Pubchem and INCHEM; cited from earlier work.
Data set [11] can be described thus: Alamar Blue cell viability/cytotoxicity assay, SK-MEL-5. The note with it: human; SK-MEL-5, 50 µM, 48 h. Type of data set: cell-based, human. As to the method: as §4, §2, §3
The subject of data set [12] is SK-MEL-5 cells. Described as above. It is filed as cell-based, human. To be noted: for IC50: Homo sapiens. As to the method:
as §4, §2, §3

The conditions of data set [13]: Figure 4A; cited from earlier work.
For data set [14], the system named is HaCaT cells. To be noted: cited from earlier work.
Data set [15] has as its system HepG2 cells. To be noted: cited from earlier work.
Data set [16] has as its system SK-MEL-2. Further details: method as in PMID 23535362. The note with it: SK-MEL-2, 72 h exposure; cited from earlier work.
For data set [17] the following is noted: cited from earlier work. This is another data set of the same source.
In data set [18] the test system is Caco-2, HepG2, A431, HaCaT, SK-MEL-5 and RAW 264.7 cells. Nature of the data set: Alamar Blue cell viability, all tested cell lines. Type of data set: cell-based. The note with it: up to 1 mM (highest tested concentration). The source says: To assess the cytotoxic activity of GLY, IMD and IMZ, six cell lines, namely Caco-2 (human epithelial colorectal adenocarcinoma; Cell Lines Service (CLS), Eppelheim, Germany), HepG2 (human hepatocellular carcinoma; ATCC, Rockville, USA), A431 (human epidermoid carcinoma; CLS, Eppelheim, Germany), HaCaT (human keratinocytes, CLS, Eppelheim, Germany), SK-MEL-5 (human skin melanoma; CLS, Eppelheim, Germany), and RAW 264.7 (mouse macrophages, Abelson murine leukaemia virus-induced tumour; CLS, Eppelheim, Germany) cells, were used. […]
Near confluence, all cell lines, except RAW 264.7 cells, were subjected to enzymatic treatment (trypsin-EDTA) for detachment and subculture, as described by Andreani et al. and by Silva et al., which was stopped using complete culture medium (1:1, trypsin:culture media) as soon as cells were detached. […] Once detached from the flasks, cells were gently separated and re-suspended using a Pasteur pipette, counted using an automated cell counter (TC10™, BIORAD, Lisbon, Portugal). […]
Alamar Blue® (AB) assay was performed to assess the in vitro effect of the pesticides on cell viability. […] Then, absorbance was read at 570 and 620 nm using a microplate reader (Multiskan EX; MTX Lab Systems, Inc., Bradenton, FL, USA), and the percentage of AB reduction was calculated according to manufacturers’ instructions, as described. […]

Where two headings read alike, the source gives them in different places.

`C=CCOC(Cn1ccnc1)c1ccc(Cl)cc1Cl` (centres unmarked) [Imazalil, imazalil]: the CYP3A4 inhibition result in [1] was “inhibit CYP3A4”. For the same molecule, the IC50 in data set [2] (24 h exposure, mean ± S.D., read-out: IC50) was 174 ± 15.3 µM; in [2] (48 h exposure, mean ± S.D., read-out: IC50), 120 ± 6.2 µM; in data set [4] (A-431, A431, 24 h exposure, mean ± S.D., read-out: IC50), 145 ± 1.7 µM; in data set [4] (A-431, A431, 48 h exposure, mean ± S.D., read-out: IC50), 117 ± 6.5 µM; in [6] (Caco-2, 24 h exposure, mean ± S.D., read-out: IC50) it was 254 ± 3.4 µM; in data set [6] (Caco-2, 48 h exposure, mean ± S.D., read-out: IC50), 186 ± 2.27 µM. Also, the IC50 in data set [7] (conversion of µg/mL value, read-out: IC50) was roughly 100 µM; in data set [7], 30 µg/mL; in data set [8] (HepG2, 24 h exposure, mean ± S.D., read-out: IC50) it was 93.7 ± 2.2 µM; in [8] (HepG2, 48 h exposure, mean ± S.D., read-out: IC50) it was 47.1 ± 0.5 µM; in [9] (RAW264.7, RAW 264.7, 24 h exposure, mean ± S.D., read-out: IC50), 31.3 ± 2.7 µM; in [9] (RAW264.7, RAW 264.7, 48 h exposure, mean ± S.D., read-out: IC50), 7.21 ± 4.5 µM. Further, the IC50 came out at 156 ± 9 µM in data set [12] (SK-MEL-5, 24 h exposure, mean ± S.D., read-out: IC50) and 76.7 ± 1.8 µM in [12] (SK-MEL-5, 48 h exposure, mean ± S.D., read-out: IC50). Moreover, the pKa in data set [3] is 6.53. This molecule also came in with a viability at 48 h, 200 µM in data set [5] (Caco-2, 200 µM) of 39.7%. Further, the cell viability reduction in [6] (24 h) is on record as 94.13%; in data set [6] (48 h) it was 98.06%. For the same molecule, in data set [8] (HepG2), the “concentration at which a significant reduction in cell viability was observed” value is 50 µM. For the same molecule, the “log Pow” value in data set [10] was 4.56. In data set [11], this molecule registered a viability at 48 h, 50 µM of roughly 80%. In addition, in [12] (SK-MEL-5, 50 µM, 48 h), the “reduction in cell viability” value was “about 20%”. Also, the H-donor acceptor count in data set [13] is 2.

For the molecule `O=[N+]([O-])NC1=NCCN1Cc1ccc(Cl)nc1` [Imidacloprid, imidacloprid], the IC50 in [2] (24 h) was 495 ± 19.4 µM; in [2] (48 h), 482 ± 12.9 µM; in data set [4] (A-431, 24 h), 573 ± 10.4 µM; in data set [4] (A-431, 48 h), 389 ± 9.2 µM; in data set [6] (Caco-2, 24 h), greater than 1000 µM; in [6] (Caco-2, 48 h), 832 ± 29.6 µM. The IC50 in data set [8] (HepG2, 24 h) was found to be 624 ± 24.3 µM; in data set [8] (HepG2, 48 h) it was 620 ± 10.6 µM; in data set [9] (RAW264.7, 24 h) it was 306 ± 22.4 µM; in [9] (RAW264.7, 48 h), 307 ± 22.1 µM; in data set [12] (SK-MEL-5, 24 h), 507 ± 22.1 µM; in data set [12] (SK-MEL-5, 48 h), 319 ± 11.5 µM. The “concentration reducing cell viability below 50%” value in data set [14] (24 h) is 2350 µM. Also, in data set [5] (Caco-2, 600 µM, read-out: cell viability (% of control)), the viability at 48 h, 600 µM came out at 68.5%. Further, the viability at 48 h, 1 mM in data set [5] (Caco-2, 1 mM, read-out: cell viability (% of control)) was 27.3%. Besides, the cell viability in data set [7] (Caco-2, 96 h, 0.25 µg/mL) was 81%. Also, the “concentrations cytotoxic / reducing cell viability” value is greater than 0.98 µM in data set [7] (Caco-2, 96 h, conversion of µg/mL value) and “above 0.25 µg/mL” in [7] (Caco-2, 96 h, formulation from Bayer). Moreover, in [10], the “log Pow” value was 0.57. Besides, the “concentration range dose-dependently reducing cell viability” value in [15] (HepG2, 24 h) was 500 to 2000 µM; in data set [15] (HepG2, 48 h), 250 to 2000 µM. For the same molecule, the “reduction in cell viability” value in [12] (SK-MEL-5, 600 µM, 48 h) is listed as ~ 88%. In addition, the H-donor acceptor count in data set [13] was 4.

For `O=C(O)CNCP(=O)(O)O` [Glyphosate, N-phosphonomethyl-glycine], the IC50 in data set [16] is 11 µM; in data set [2] (24 h), greater than 1000 µM; in data set [2] (48 h) it was greater than 1000 µM; in data set [14] (18 h exposure), 30000 µM; in data set [4] (A-431, 24 h), greater than 1000 µM; in data set [4] (A-431, 48 h), greater than 1000 µM. Besides, the IC50 in data set [6] (Caco-2, 24 h) is greater than 1000 µM; in data set [6] (Caco-2, 48 h) it was greater than 1000 µM; in data set [8] (HepG2, 24 h), greater than 1000 µM; in data set [8] (HepG2, 48 h), greater than 1000 µM; in data set [9] (RAW264.7, 24 h), greater than 1000 µM; in [9] (RAW264.7, 48 h), greater than 1000 µM. The IC50 in data set [12] (SK-MEL-5, 24 h) was greater than 1000 µM; in data set [12] (SK-MEL-5, 48 h), greater than 1000 µM. The “effect on cell viability” value is recorded as “no significant reduction in cell viability” in data set [6] (Caco-2, concentrations up to 1 mM, 24 h or 48 h); “did not reduce cell viability” in data set [18]; “not able to induce cell death below 50%” in data set [18] (listed as GLY). The “concentrations that disrupted Caco-2 monolayers (loss of membrane integrity)” value was greater than 59000 µM in data set [7] (conversion of mg/mL value) and “higher than 10 mg/mL” in data set [7]. The “solubility in organic solvents” value in data set [17] was “very low solubility in organic solvents”. In addition, the effect on cells result in [8] (HepG2, concentrations up to 1 mM) is “not affected”. In data set [15] (HepG2, up to 3.5 µg/mL (20.7 µM), 4 h and 24 h), the “effect on cell proliferation” value is “slight increase in cell proliferation”. Also, the “reduction in cell viability” value in [12] (SK-MEL-5, 1 mM, 24 h) was 23.3%; in [12] (SK-MEL-5, 1 mM, 48 h) it was 18.7%.

The values are drawn from paper PMC9317861, “In Vitro Assessment of Pesticides Toxicity and Data Correlation with Pesticides Physicochemical Properties for Prediction of Toxicity in Gastrointestinal and Skin Contact Exposure” (Toxics, 2022).
